Tests used:
Pfu DNA polymerase = target: T1, Pfu DNA polymerase (Pyrococcus furiosus, UniProt P61875); test: Inhibition by aphidicolin of Pfu DNA polymerase; format: biochemical, Pyrococcus furiousus; settings: 1.0 mM aphidicolin
T1 construct: purchased Stratagene
T1 sequence (P61875 1-775): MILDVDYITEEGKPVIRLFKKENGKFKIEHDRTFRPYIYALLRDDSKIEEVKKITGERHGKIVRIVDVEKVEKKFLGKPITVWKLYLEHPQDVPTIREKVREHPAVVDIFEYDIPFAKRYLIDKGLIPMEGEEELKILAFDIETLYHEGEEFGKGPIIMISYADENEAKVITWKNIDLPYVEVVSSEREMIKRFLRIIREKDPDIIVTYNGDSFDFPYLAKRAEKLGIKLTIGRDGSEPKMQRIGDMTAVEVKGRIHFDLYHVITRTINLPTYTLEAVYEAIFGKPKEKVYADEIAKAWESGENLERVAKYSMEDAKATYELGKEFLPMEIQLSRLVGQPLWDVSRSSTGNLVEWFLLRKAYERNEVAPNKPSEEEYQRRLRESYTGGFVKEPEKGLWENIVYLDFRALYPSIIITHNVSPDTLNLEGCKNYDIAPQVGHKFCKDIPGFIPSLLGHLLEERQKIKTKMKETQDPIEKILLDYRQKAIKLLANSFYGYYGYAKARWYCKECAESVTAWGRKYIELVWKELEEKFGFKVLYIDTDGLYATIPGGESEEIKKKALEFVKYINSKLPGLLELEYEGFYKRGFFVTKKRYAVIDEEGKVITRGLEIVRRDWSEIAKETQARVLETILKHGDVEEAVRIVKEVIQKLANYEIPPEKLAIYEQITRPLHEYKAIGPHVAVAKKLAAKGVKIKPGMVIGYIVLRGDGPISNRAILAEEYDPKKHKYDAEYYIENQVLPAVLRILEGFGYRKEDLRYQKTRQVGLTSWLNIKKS
Procedure: (§1) In order to compare the modes of inhibition by inhibitors, the modes of inhibition of the DNA polymerase of the present invention and an α-type DNA polymerase derived from Pyrococcus furiousus (Pfu DNA polymerase, manufactured by Stratagene), a known DNA polymerase, were compared using a specific inhibitor of α-type DNA polymerases, aphidicolin. The activity changes were examined, while the aphidicolin concentration was increased from 0 to 2.0 mM in the presence of 20 mM Tris-HCl, pH 7.7, 15 mM MgCl2, 2 mM 2-mercaptoethanol, 0.2 mg/ml activated DNA, and 40 μM each of dATP, dGTP, dCTP and dTTP.

[1] = target: T2, DNA polymerase of the present invention (Pyrococcus furiosus, UniProt P81409); test: Inhibition by aphidicolin of the DNA polymerase of the present invention; format: biochemical; settings: 2.0 mM aphidicolin
T2 construct: made in house; host or cells: Escherichia coli JM109 carrying pFU1001 (genomic XbaI-XbaI fragment in pTV118N)
T2 sequence (P81409 1-1263): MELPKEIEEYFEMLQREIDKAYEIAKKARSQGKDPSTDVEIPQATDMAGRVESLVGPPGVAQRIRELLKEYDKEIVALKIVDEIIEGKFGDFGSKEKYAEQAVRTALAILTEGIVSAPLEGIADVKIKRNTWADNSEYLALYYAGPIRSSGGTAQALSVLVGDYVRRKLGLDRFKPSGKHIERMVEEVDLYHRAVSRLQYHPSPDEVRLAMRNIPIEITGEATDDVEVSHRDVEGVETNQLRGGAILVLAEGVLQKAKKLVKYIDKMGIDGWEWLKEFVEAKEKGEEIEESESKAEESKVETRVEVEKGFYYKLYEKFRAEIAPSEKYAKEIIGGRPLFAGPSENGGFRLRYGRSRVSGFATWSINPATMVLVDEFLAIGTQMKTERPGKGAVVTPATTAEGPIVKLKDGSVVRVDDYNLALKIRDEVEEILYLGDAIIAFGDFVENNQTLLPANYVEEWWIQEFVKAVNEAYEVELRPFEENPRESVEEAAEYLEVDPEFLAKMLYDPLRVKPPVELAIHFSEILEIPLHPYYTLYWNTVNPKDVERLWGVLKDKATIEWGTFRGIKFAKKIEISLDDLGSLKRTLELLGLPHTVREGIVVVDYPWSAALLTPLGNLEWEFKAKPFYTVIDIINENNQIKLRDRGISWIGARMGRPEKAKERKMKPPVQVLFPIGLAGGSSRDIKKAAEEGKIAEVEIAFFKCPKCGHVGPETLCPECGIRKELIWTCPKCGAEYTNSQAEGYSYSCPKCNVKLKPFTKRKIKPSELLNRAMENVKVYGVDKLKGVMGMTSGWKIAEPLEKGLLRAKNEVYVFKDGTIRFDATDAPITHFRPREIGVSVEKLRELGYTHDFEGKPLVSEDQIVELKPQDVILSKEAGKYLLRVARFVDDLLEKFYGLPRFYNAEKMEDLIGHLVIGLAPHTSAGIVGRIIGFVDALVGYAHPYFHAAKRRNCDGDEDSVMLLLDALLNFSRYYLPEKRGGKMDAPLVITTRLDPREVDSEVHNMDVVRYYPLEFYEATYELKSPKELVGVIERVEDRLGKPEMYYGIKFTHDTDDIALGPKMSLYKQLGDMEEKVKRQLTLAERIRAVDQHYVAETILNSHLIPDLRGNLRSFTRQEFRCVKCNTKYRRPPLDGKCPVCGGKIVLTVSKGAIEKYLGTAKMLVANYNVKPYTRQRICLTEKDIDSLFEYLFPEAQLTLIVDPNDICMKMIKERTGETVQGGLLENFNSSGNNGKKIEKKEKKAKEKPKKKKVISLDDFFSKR
T2 sequence (P81412 1-613 partner): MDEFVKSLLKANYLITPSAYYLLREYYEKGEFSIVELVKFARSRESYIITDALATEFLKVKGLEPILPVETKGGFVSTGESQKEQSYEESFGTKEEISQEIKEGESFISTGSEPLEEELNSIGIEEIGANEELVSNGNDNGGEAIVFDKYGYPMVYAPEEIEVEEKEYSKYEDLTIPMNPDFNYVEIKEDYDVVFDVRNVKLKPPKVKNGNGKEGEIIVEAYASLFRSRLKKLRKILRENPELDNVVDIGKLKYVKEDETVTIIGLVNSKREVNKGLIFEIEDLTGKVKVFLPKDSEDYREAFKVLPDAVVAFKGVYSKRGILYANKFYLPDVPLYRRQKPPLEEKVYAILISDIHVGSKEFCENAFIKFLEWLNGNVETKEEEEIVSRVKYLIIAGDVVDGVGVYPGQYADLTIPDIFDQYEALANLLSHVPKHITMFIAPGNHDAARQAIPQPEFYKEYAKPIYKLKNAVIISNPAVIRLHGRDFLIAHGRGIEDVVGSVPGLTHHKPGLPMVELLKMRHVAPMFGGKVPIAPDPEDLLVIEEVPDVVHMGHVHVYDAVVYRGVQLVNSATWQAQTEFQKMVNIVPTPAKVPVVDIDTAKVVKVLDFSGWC
Procedure: as §1

`C[C@@]1(CO)[C@H](O)CC[C@@]2(C)[C@H]1CC[C@H]1C[C@@H]3C[C@@]12CC[C@]3(O)CO` [aphidicolin] was tested, and the “activity of the Pfu DNA polymerase relative to the original activity” value (Pfu DNA polymerase) was 20% and the “inhibition of the DNA polymerase of the present invention” value [1] was “not inhibited at all”.
